The test system of one data set is migraine sufferers. Particulars: cited from earlier work.
Another data set concerns the target T1, 5-HT1D (Bos taurus, UniProt F1MGM3).
T1 construct: methodology such as that described by Heuring and Peroutka, J. Neurosci., 7(3), 1987, 894-903; with only minor modifications; from tissue
Kind of data set: 5-HT1D binding (displacement of tritiated serotonin). Particulars: in vitro, Table 2. The method, then:
Determination of 5-HT1D binding properties was accomplished employing methodology such as that described by Heuring and Peroutka, J. Neurosci., 7(3), 1987, 894-903; with only minor modifications. In vitro IC50 (nM) test values were determined for the compounds of this invention employing tritiated serotonin.

The next data set concerns migraine. Particulars: cited from earlier work.

As usually defined, the IC50 is the concentration needed to halve the response being measured. High values mean weaker potency, low ones greater potency.

Counter-ions that a name gives are not always drawn.

T1 sequence (F1MGM3 1-403): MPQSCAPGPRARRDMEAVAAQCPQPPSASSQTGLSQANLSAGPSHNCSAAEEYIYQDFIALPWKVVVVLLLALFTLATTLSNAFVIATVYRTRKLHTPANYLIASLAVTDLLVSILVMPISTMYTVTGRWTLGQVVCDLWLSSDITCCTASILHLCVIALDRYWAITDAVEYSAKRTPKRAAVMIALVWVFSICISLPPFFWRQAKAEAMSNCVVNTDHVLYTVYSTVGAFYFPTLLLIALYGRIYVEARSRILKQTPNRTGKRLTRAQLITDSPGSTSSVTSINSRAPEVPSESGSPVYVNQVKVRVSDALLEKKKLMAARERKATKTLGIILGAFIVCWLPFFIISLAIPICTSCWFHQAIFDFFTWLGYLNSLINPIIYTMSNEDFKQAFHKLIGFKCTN

For `NCCc1c[nH]c2ccc(O)cc12` [serotonin creatinine sulfate], the “alleviation of reserpine-induced headache” value in the data set with migraine sufferers (slow I.V. injection) was “This induced headache can be alleviated”.

Compound `COc1cncnc1N1CCN(CCCc2c[nH]c3ccc(N(C)S(C)(=O)=O)cc23)CC1C` (centres unmarked) [Example 70] showed an IC50 at 5-HT1D of 11 nM.

Compound `COc1cncnc1N1CCN(CCCc2c[nH]c3ccc(NS(C)(=O)=O)cc23)CC1C` (centres unmarked) [Example 68] displayed an IC50 on 5-HT1D of 9.6 nM.

With `CC[C@@H](CO)NC(=O)[C@@H]1C=C2c3cccc4c3c(cn4C)C[C@H]2N(C)C1` [methysergide], in the data set on migraine (long term usage), the side-effects entry was “severe use-limiting side-effects with long term usage”.

`CNS(=O)(=O)Cc1ccc2[nH]cc(CCCN3CCN(c4ccncc4OC)CC3)c2c1` [Example 61, 4-(5-Methoxy-4-pyridinyl)-1-[3-[5-[[(methylamino)sulfonyl]methyl]-1H-indol-3-yl]propyl]piperazine hydrochloride] gave an IC50 on 5-HT1D of 1 nM.

`CN1C[C@H](C(=O)N[C@]2(C)O[C@@]3(O)[C@@H]4CCCN4C(=O)[C@H](Cc4ccccc4)N3C2=O)C=C2c3cccc4[nH]cc(c34)C[C@H]21` [ergotamine]: the dependence result in the data set on migraine (extended use) is recorded as “cause dependence with extended use”.

With `COc1cnccc1N1CCN(CCCc2c[nH]c3ccccc23)CC1` [Example 62, 1-[3-(1H-indol-3-yl)propyl]-4-(3-methoxy-4-pyridinyl)piperazine dihydrochloride], on 5-HT1D, the IC50 was 10 nM.

The compound `COc1cncnc1N1CCN(CCCc2c[nH]c3ccc(F)cc23)CC1` [Example 64] gave an IC50 on 5-HT1D of 1.5 nM.

Take `NCCc1c[nH]c2ccc(O)cc12` [serotonin]: in the data set on migraine sufferers (in vivo), the “effect in treating migraine attacks” value is “effective in treating migraine attacks”; the “side-effects in migraine use” value was “restlessness, nausea, faintness, hyperpnea, facial flushing and parasthesias”.

Regarding `COc1cncnc1N1CCN(CCCc2c[nH]c3ccc(CS(N)(=O)=O)cc23)CC1` [Example 81], the half-maximal inhibitory concentration (IC50) on 5-HT1D worked out at 7.9 nM.

In the case of `COC(=O)[C@H]1[C@H]2C[C@@H]3c4[nH]c5cc(OC)ccc5c4CCN3C[C@H]2C[C@@H](OC(=O)c2cc(OC)c(OC)c(OC)c2)[C@@H]1OC` [reserpine], the “induction of headache in migraine sufferers” value with migraine sufferers (in vivo) is given as “induces a typical migraine-type headache in migraine sufferers”. Also, the plasma serotonin result in the data set with migraine sufferers (intramuscular injection) is “lowers plasma serotonin”.

Regarding `COc1cncnc1N1CCN(CCCc2c[nH]c3ccc(CC(=O)NCc4ccccc4)cc23)CC1` [Example 84], at 5-HT1D, the IC50 was found to be 4.6 nM.
